In patent publication US20260042731A1, “(2,4-DICHLOROPHENOXY)ACETIC ACID ANALOGS” (CORTEVA AGRISCIENCE LLC, priority 2022, published 2026):
Like-named read-outs stand apart in the source and are kept apart here.

What was measured:
[1] = system: weeds ABUTH, AMATA, AMBEL, CHEAL, ERICA; assay: Postemergence herbicide evaluation, overall average % weed control (ABUTH, AMATA, AMBEL, CHEAL, ERICA); format: in vivo; settings: post-emergence, read-out: Overall Ave % Weed Control; for pest or weed control at 280 g/ha: 280 g ae/ha; for pest or weed control at 560 g/ha: 560 g ae/ha
[2] = system: Chenopodium album (CHEAL), common lambsquarters; assay: Postemergence herbicide evaluation, growth of Chenopodium album (CHEAL); format: in vivo; settings: Chenopodium album, post-emergence, read-out: Ave. CHEAL, percent reduction in plant size relative to the untreated control; for pest or weed control at 280 g/ha: 280 g ae/ha; for pest or weed control at 560 g/ha: 560 g ae/ha
[3] = Volatility of compounds measured by thermogravimetric analysis (TGA); format: physicochemical
[4] = system: Abutilon theophrasti (ABUTH), velvetleaf; assay: Postemergence herbicide evaluation, growth of Abutilon theophrasti (ABUTH); format: in vivo; settings: Abutilon theophrasti, post-emergence, read-out: AVE. ABUTH, percent reduction in plant size relative to the untreated control; for pest or weed control at 280 g/ha: 280 g ae/ha; for pest or weed control at 560 g/ha: 560 g ae/ha
[5] = system: Ambrosia artemisiifolia (AMBEL), common ragweed; assay: Postemergence herbicide evaluation, growth of Ambrosia artemisiifolia (AMBEL); format: in vivo; settings: Ambrosia artemisiifolia, post-emergence, read-out: AVE. AMBEL, percent reduction in plant size relative to the untreated control; for pest or weed control at 280 g/ha: 280 g ae/ha; for pest or weed control at 560 g/ha: 560 g ae/ha
[6] = system: Amaranthus rudis (AMATA), tall water hemp; assay: Postemergence herbicide evaluation, growth of Amaranthus rudis (AMATA); format: in vivo; settings: Amaranthus tuberculatus, post-emergence, read-out: Ave. AMATA, percent reduction in plant size relative to the untreated control; for pest or weed control at 280 g/ha: 280 g ae/ha; for pest or weed control at 560 g/ha: 560 g ae/ha
[7] = system: glyphosate resistant Conyza canadensis (L.) (ERICA), horseweed; assay: Postemergence herbicide evaluation, growth of Conyza canadensis (ERICA); format: in vivo; settings: Erigeron canadensis, post-emergence, read-out: Ave. ERICA, percent reduction in plant size relative to the untreated control; for pest or weed control at 280 g/ha: 280 g ae/ha; for pest or weed control at 560 g/ha: 560 g ae/ha

SMILES	pest or weed control at 280 g/ha ([1]; 168 h, 7 DAA)	pest or weed control at 560 g/ha ([1]; 168 h, 7 DAA)	pest or weed control at 280 g/ha ([1]; 336 h, 14 DAA)	pest or weed control at 560 g/ha ([1]; 336 h, 14 DAA)	pest or weed control at 280 g/ha ([1]; 504 h, 21 DAA)	pest or weed control at 560 g/ha ([1]; 504 h, 21 DAA)	pest or weed control at 280 g/ha ([2]; 168 h, 7 DAA)	pest or weed control at 560 g/ha ([2]; 168 h, 7 DAA)	pest or weed control at 280 g/ha ([2]; 336 h, 14 DAA)	pest or weed control at 560 g/ha ([2]; 336 h, 14 DAA)	pest or weed control at 280 g/ha ([2]; 504 h, 21 DAA)	pest or weed control at 560 g/ha ([2]; 504 h, 21 DAA)	TGA Data (rate of weight loss, volatility) [3]	pest or weed control at 280 g/ha ([4]; 168 h, 7 DAA)	pest or weed control at 560 g/ha ([4]; 168 h, 7 DAA)	pest or weed control at 280 g/ha ([4]; 336 h, 14 DAA)	pest or weed control at 560 g/ha ([4]; 336 h, 14 DAA)	pest or weed control at 280 g/ha ([4]; 504 h, 21 DAA)	pest or weed control at 560 g/ha ([4]; 504 h, 21 DAA)	pest or weed control at 280 g/ha ([5]; 168 h, 7 DAA)	further results
CC(C)CONC(=O)COc1ccc(Cl)cc1Cl [Compound D22]	81.5%	85.5%	93.5%	97.3%	97%	99.3%	80%	82.5%	91.5%	99%	97.5%	97.5%	0.2649 µg/min	72.5%	82.5%	93.5%	98.5%	100%	99%	90%	pest or weed control at 560 g/ha ([5]; 168 h, 7 DAA): 85%; pest or weed control at 280 g/ha ([5]; 336 h, 14 DAA): 90%; pest or weed control at 560 g/ha ([5]; 336 h, 14 DAA): 97.5%; pest or weed control at 280 g/ha ([5]; 504 h, 21 DAA): 100%; pest or weed control at 560 g/ha ([5]; 504 h, 21 DAA): 100%; pest or weed control at 280 g/ha ([6]; 168 h, 7 DAA): 80%; pest or weed control at 560 g/ha ([6]; 168 h, 7 DAA): 92.5%; pest or weed control at 280 g/ha ([6]; 336 h, 14 DAA): 92.5%; pest or weed control at 560 g/ha ([6]; 336 h, 14 DAA): 92.5%; pest or weed control at 280 g/ha ([6]; 504 h, 21 DAA): 87.5%; pest or weed control at 560 g/ha ([6]; 504 h, 21 DAA): 100%; pest or weed control at 280 g/ha ([7]; 168 h, 7 DAA): 85%; pest or weed control at 560 g/ha ([7]; 168 h, 7 DAA): 85%; pest or weed control at 280 g/ha ([7]; 336 h, 14 DAA): 100%; pest or weed control at 560 g/ha ([7]; 336 h, 14 DAA): 99%; pest or weed control at 280 g/ha ([7]; 504 h, 21 DAA): 100%; pest or weed control at 560 g/ha ([7]; 504 h, 21 DAA): 100%
O=C(COc1ccc(Cl)cc1Cl)Nc1cc[nH]n1 [Compound D21]	69%	76.5%	78.1%	86.5%	80.4%	93.8%	82.5%	80%	95%	92.5%	92.5%	96%	0.07078 µg/min	32.5%	47.5%	37.5%	57.5%	47.5%	75%	75%	pest or weed control at 560 g/ha ([5]; 168 h, 7 DAA): 85%; pest or weed control at 280 g/ha ([5]; 336 h, 14 DAA): 70%; pest or weed control at 560 g/ha ([5]; 336 h, 14 DAA): 92.5%; pest or weed control at 280 g/ha ([5]; 504 h, 21 DAA): 99.5%; pest or weed control at 560 g/ha ([5]; 504 h, 21 DAA): 100%; pest or weed control at 280 g/ha ([6]; 168 h, 7 DAA): 72.5%; pest or weed control at 560 g/ha ([6]; 168 h, 7 DAA): 90%; pest or weed control at 280 g/ha ([6]; 336 h, 14 DAA): 88%; pest or weed control at 560 g/ha ([6]; 336 h, 14 DAA): 90%; pest or weed control at 280 g/ha ([6]; 504 h, 21 DAA): 67.5%; pest or weed control at 560 g/ha ([6]; 504 h, 21 DAA): 100%; pest or weed control at 280 g/ha ([7]; 168 h, 7 DAA): 82.5%; pest or weed control at 560 g/ha ([7]; 168 h, 7 DAA): 80%; pest or weed control at 280 g/ha ([7]; 336 h, 14 DAA): 100%; pest or weed control at 560 g/ha ([7]; 336 h, 14 DAA): 100%; pest or weed control at 280 g/ha ([7]; 504 h, 21 DAA): 95%; pest or weed control at 560 g/ha ([7]; 504 h, 21 DAA): 98%
O=C(COc1ccc(Cl)cc1Cl)Oc1ncc(Cl)cn1 [Compound E13]	78.3%	81.5%	91.4%	95.2%	96.5%	99.3%	77.5%	85%	95%	90%	96.5%	100%	0.16 µg/min	76.5%	72.5%	90%	93.5%	100%	100%	70%	pest or weed control at 560 g/ha ([5]; 168 h, 7 DAA): 82.5%; pest or weed control at 280 g/ha ([5]; 336 h, 14 DAA): 89.5%; pest or weed control at 560 g/ha ([5]; 336 h, 14 DAA): 97.5%; pest or weed control at 280 g/ha ([5]; 504 h, 21 DAA): 100%; pest or weed control at 560 g/ha ([5]; 504 h, 21 DAA): 100%; pest or weed control at 280 g/ha ([6]; 168 h, 7 DAA): 85%; pest or weed control at 560 g/ha ([6]; 168 h, 7 DAA): 87.5%; pest or weed control at 280 g/ha ([6]; 336 h, 14 DAA): 82.5%; pest or weed control at 560 g/ha ([6]; 336 h, 14 DAA): 96%; pest or weed control at 280 g/ha ([6]; 504 h, 21 DAA): 86.5%; pest or weed control at 560 g/ha ([6]; 504 h, 21 DAA): 99%; pest or weed control at 280 g/ha ([7]; 168 h, 7 DAA): 82.5%; pest or weed control at 560 g/ha ([7]; 168 h, 7 DAA): 80%; pest or weed control at 280 g/ha ([7]; 336 h, 14 DAA): 100%; pest or weed control at 560 g/ha ([7]; 336 h, 14 DAA): 99%; pest or weed control at 280 g/ha ([7]; 504 h, 21 DAA): 99.5%; pest or weed control at 560 g/ha ([7]; 504 h, 21 DAA): 97.5%
O=C(COc1ccc(Cl)cc1Cl)O/N=C/c1cccnc1 [Compound A29]	71.5%	79.7%	85.8%	94.7%	88.1%	98.3%	82.5%	77.5%	96.5%	95%	91.5%	97.5%	0.38 µg/min	50%	70%	67.5%	82.5%	77.5%	97.5%	77.5%	pest or weed control at 560 g/ha ([5]; 168 h, 7 DAA): 77.5%; pest or weed control at 280 g/ha ([5]; 336 h, 14 DAA): 75%; pest or weed control at 560 g/ha ([5]; 336 h, 14 DAA): 100%; pest or weed control at 280 g/ha ([5]; 504 h, 21 DAA): 100%; pest or weed control at 560 g/ha ([5]; 504 h, 21 DAA): 100%; pest or weed control at 280 g/ha ([6]; 168 h, 7 DAA): 70%; pest or weed control at 560 g/ha ([6]; 168 h, 7 DAA): 91%; pest or weed control at 280 g/ha ([6]; 336 h, 14 DAA): 90%; pest or weed control at 560 g/ha ([6]; 336 h, 14 DAA): 97%; pest or weed control at 280 g/ha ([6]; 504 h, 21 DAA): 72.5%; pest or weed control at 560 g/ha ([6]; 504 h, 21 DAA): 100%; pest or weed control at 280 g/ha ([7]; 168 h, 7 DAA): 77.5%; pest or weed control at 560 g/ha ([7]; 168 h, 7 DAA): 82.5%; pest or weed control at 280 g/ha ([7]; 336 h, 14 DAA): 100%; pest or weed control at 560 g/ha ([7]; 336 h, 14 DAA): 99%; pest or weed control at 280 g/ha ([7]; 504 h, 21 DAA): 99%; pest or weed control at 560 g/ha ([7]; 504 h, 21 DAA): 96.5%
